According to patent publication US7033802B1, “Penicillin binding protein gene and process for producing L-glutamic acid” (Ajinomoto Co., Inc., priority 1998, dated 2006):
Entries after “also recorded” stand apart in the source; their conditions may differ.

Key:
PBP3 = experiment: Inhibition by mecillinam of binding of 14C-penicillin G to PBPs in membrane fraction (SDS-PAGE, image analyzer); set-up: species or system Brevibacterium lactofermentum; conditions: mecillinam added at various concentrations before the penicillin binding reaction; membrane fraction of ATCC 13869
Method: PBP is considered to be a membrane protein. A membrane fraction of a coryneform bacterium was prepared as follows. A wild strain of coryneform bacteria, Brevibacterium lactofermentum ATCC 13869 strain, was inoculated to 20 ml of A medium (containing 10 g of polypeptone, 5 g of yeast extract, 5 g of NaCl and 5 g of glucose in 1 L of water), cultured at 30° C. with shaking, and harvested when the absorption at 660 nm reached about 1.0. The cells were washed in […] sodium phosphate buffer, pH 7.0. Then, the buffer was added with glass beads and sonicated to disrupt the cells. […] Protein concentration of this membrane fraction was determined by using a protein quantification kit (produced by PIERCE, Micro BCA Protein assay kit), and found to be 4 mg/ml.
A volume of 30 μl of the prepared membrane fraction was added with 3 μl of ^14C-penicillin G (produced by Amersham) and allowed to react at 30° C. for 10 minutes. […] A sample of this fraction was subjected to SDS-PAGE using gel containing 10% of polyacrylamide, and the gel was fixed, dried and analyzed with an image analyzer BAS2000 produced by Fuji Photo Film Co., Ltd. As a result, three bands were detected at 110 kDa, 100 kDa and 60 kDa, and designated as PBP1, PBP2 and PBP3, respectively. […]

[1] = test system: Brevibacterium lactofermentum ATCC 13869; experiment: Glutamic acid production by coryneform bacterium induced by addition of mecillinam; type: cell-based; conditions: A medium, 30° C., added after 2 hours, further cultured 8 hours
Method: The Brevibacterium lactofermentum ATCC 13869 strain was inoculated to the aforementioned A medium, cultured at 30° C. for 2 hours with shaking, then added with 0.01 μM to 100 μM of mecillinam, and further cultured for 8 hours with shaking. Subsequently, glutamic acid concentration in the medium was measured by using Biotech Analyzer AS210 (produced by Asahi Chemical Industry Co., Ltd.) (Table 1).

## CC1(C)S[C@@H]2[C@H](/N=C/N3CCCCCC3)C(=O)N2[C@H]1C(=O)O [mecillinam]
PBP3
  inhibition of binding of PBP with isotope (14C) labeled penicillin G / selectivity among PBP1, PBP2, PBP3: only PBP3 was inhibited; also recorded: selectively binds to PBP3
[1]; 0.1 μM added mecillinam
  Concentration of L-glutamic acid: 0 mg/L
[1]; 1.0 μM added mecillinam
  Concentration of L-glutamic acid: 0 mg/L
[1]; 10 μM added mecillinam
  Concentration of L-glutamic acid: 0 mg/L
[1]; 100 μM added mecillinam
  Concentration of L-glutamic acid: 575 mg/L
